How the values were obtained:
[1] = system: Tyrosine-protein kinase ABL1 (Homo sapiens), P00519 [M351T]; conditions: Compound concentration 1000.0 nM
[2] = molecular target: Tyrosine-protein kinase ABL1 (Homo sapiens) (UniProt P00519); conditions: Compound concentration 1000.0 nM
[3] = molecular target: Bone morphogenetic protein receptor type-2 (Homo sapiens) (UniProt Q13873); conditions: Compound concentration 1000.0 nM
[4] = molecular target: Cyclin-dependent kinase-like 5 (Homo sapiens) (UniProt O76039); conditions: Compound concentration 1000.0 nM
[5] = molecular target: Serine/threonine-protein kinase 17A (Homo sapiens) (UniProt Q9UEE5); conditions: Compound concentration 1000.0 nM
Serine/threonine-protein kinase 17A (Homo sapiens), sequence (Q9UEE5 whole entry): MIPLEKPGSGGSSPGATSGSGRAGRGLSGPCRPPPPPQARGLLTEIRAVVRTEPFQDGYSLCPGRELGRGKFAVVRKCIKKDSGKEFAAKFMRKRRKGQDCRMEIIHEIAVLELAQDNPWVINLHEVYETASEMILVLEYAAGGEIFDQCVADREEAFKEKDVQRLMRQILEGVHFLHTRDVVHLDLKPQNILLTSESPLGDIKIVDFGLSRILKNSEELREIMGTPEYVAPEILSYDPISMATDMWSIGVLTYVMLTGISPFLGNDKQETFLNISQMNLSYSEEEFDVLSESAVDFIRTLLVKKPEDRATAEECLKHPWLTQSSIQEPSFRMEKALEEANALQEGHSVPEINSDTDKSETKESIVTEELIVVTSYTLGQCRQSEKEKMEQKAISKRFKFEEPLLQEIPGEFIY

[6] = molecular target: Ephrin type-A receptor 4 (Homo sapiens) (UniProt P54764); conditions: Compound concentration 1000.0 nM
[7] = molecular target: Rhodopsin kinase GRK7 (Homo sapiens) (UniProt Q8WTQ7); conditions: Compound concentration 1000.0 nM
[8] = molecular target: Inhibitor of nuclear factor kappa-B kinase subunit epsilon (Homo sapiens) (UniProt Q14164); conditions: Compound concentration 1000.0 nM
[9] = system: Leucine-rich repeat serine/threonine-protein kinase 2 (Homo sapiens), Q5S007 [G2019S]; conditions: Compound concentration 1000.0 nM
[10] = molecular target: Serine/threonine-protein kinase Nek3 (Homo sapiens) (UniProt P51956); conditions: Compound concentration 1000.0 nM
[11] = molecular target: Serine/threonine-protein kinase PAK 6 (Homo sapiens) (UniProt Q9NQU5); conditions: Compound concentration 1000.0 nM
[12] = molecular target: Serine/threonine-protein kinase PAK 5 (Homo sapiens) (UniProt Q9P286); conditions: Compound concentration 1000.0 nM
[13] = system: Phosphatidylinositol 4,5-bisphosphate 3-kinase catalytic subunit alpha isoform (Homo sapiens), P42336 [H1047Y]; conditions: Compound concentration 1000.0 nM
[14] = molecular target: Phosphatidylinositol 5-phosphate 4-kinase type-2 beta (Homo sapiens) (UniProt P78356); conditions: Compound concentration 1000.0 nM
Phosphatidylinositol 5-phosphate 4-kinase type-2 beta (Homo sapiens), sequence (P78356 whole entry): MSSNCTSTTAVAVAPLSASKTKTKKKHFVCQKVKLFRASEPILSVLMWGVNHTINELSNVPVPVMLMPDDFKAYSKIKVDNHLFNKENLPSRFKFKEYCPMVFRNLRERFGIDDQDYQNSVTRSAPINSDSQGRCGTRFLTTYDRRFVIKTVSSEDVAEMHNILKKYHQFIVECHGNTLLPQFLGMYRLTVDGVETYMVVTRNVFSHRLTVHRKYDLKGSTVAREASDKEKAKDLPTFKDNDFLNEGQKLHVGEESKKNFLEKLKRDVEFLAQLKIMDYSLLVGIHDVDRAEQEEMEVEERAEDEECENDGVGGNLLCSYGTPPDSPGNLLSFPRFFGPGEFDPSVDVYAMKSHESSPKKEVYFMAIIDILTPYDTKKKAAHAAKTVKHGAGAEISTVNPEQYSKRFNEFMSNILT

[15] = molecular target: Membrane-associated tyrosine- and threonine-specific cdc2-inhibitory kinase (Homo sapiens) (UniProt Q99640); conditions: Compound concentration 1000.0 nM
Membrane-associated tyrosine- and threonine-specific cdc2-inhibitory kinase (Homo sapiens), sequence (Q99640 whole entry): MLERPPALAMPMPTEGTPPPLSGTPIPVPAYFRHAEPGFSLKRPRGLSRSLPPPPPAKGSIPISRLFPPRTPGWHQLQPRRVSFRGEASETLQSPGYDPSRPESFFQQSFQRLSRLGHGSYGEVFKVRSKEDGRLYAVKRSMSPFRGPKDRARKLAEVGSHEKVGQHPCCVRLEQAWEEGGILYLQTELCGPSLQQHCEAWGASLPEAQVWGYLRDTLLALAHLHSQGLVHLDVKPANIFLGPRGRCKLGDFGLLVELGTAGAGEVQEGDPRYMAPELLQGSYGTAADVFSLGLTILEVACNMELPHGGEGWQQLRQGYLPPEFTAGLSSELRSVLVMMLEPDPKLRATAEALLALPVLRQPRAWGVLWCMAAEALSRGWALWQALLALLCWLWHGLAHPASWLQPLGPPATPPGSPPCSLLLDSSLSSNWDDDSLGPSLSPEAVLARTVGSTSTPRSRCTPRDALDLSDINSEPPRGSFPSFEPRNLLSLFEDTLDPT

[16] = molecular target: Rho-associated protein kinase 2 (Homo sapiens) (UniProt O75116); conditions: Compound concentration 1000.0 nM
[17] = molecular target: NUAK family SNF1-like kinase 2 (Homo sapiens) (UniProt Q9H093); conditions: Compound concentration 1000.0 nM
NUAK family SNF1-like kinase 2 (Homo sapiens), sequence (Q9H093 whole entry): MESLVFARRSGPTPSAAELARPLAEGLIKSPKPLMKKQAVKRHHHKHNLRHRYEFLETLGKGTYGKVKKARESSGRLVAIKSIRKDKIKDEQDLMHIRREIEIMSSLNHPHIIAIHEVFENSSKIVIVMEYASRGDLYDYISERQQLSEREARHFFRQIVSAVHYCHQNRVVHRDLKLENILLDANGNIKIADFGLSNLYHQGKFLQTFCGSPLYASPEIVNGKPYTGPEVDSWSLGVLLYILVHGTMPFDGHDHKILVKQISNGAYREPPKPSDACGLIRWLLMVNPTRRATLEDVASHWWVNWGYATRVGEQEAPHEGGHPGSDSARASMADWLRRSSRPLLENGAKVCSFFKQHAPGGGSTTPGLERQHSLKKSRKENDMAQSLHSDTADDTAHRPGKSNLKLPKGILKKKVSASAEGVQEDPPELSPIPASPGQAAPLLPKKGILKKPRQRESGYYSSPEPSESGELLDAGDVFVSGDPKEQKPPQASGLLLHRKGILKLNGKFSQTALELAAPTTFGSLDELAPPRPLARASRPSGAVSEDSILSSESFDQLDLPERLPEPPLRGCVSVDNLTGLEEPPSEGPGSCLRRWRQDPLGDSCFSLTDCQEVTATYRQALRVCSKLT

[18] = molecular target: Angiopoietin-1 receptor (Homo sapiens) (UniProt Q02763); conditions: Compound concentration 1000.0 nM
[19] = molecular target: Transient receptor potential cation channel subfamily M member 6 (Homo sapiens) (UniProt Q9BX84); conditions: Compound concentration 1000.0 nM
Transient receptor potential cation channel subfamily M member 6 (Homo sapiens), sequence (Q9BX84 whole entry): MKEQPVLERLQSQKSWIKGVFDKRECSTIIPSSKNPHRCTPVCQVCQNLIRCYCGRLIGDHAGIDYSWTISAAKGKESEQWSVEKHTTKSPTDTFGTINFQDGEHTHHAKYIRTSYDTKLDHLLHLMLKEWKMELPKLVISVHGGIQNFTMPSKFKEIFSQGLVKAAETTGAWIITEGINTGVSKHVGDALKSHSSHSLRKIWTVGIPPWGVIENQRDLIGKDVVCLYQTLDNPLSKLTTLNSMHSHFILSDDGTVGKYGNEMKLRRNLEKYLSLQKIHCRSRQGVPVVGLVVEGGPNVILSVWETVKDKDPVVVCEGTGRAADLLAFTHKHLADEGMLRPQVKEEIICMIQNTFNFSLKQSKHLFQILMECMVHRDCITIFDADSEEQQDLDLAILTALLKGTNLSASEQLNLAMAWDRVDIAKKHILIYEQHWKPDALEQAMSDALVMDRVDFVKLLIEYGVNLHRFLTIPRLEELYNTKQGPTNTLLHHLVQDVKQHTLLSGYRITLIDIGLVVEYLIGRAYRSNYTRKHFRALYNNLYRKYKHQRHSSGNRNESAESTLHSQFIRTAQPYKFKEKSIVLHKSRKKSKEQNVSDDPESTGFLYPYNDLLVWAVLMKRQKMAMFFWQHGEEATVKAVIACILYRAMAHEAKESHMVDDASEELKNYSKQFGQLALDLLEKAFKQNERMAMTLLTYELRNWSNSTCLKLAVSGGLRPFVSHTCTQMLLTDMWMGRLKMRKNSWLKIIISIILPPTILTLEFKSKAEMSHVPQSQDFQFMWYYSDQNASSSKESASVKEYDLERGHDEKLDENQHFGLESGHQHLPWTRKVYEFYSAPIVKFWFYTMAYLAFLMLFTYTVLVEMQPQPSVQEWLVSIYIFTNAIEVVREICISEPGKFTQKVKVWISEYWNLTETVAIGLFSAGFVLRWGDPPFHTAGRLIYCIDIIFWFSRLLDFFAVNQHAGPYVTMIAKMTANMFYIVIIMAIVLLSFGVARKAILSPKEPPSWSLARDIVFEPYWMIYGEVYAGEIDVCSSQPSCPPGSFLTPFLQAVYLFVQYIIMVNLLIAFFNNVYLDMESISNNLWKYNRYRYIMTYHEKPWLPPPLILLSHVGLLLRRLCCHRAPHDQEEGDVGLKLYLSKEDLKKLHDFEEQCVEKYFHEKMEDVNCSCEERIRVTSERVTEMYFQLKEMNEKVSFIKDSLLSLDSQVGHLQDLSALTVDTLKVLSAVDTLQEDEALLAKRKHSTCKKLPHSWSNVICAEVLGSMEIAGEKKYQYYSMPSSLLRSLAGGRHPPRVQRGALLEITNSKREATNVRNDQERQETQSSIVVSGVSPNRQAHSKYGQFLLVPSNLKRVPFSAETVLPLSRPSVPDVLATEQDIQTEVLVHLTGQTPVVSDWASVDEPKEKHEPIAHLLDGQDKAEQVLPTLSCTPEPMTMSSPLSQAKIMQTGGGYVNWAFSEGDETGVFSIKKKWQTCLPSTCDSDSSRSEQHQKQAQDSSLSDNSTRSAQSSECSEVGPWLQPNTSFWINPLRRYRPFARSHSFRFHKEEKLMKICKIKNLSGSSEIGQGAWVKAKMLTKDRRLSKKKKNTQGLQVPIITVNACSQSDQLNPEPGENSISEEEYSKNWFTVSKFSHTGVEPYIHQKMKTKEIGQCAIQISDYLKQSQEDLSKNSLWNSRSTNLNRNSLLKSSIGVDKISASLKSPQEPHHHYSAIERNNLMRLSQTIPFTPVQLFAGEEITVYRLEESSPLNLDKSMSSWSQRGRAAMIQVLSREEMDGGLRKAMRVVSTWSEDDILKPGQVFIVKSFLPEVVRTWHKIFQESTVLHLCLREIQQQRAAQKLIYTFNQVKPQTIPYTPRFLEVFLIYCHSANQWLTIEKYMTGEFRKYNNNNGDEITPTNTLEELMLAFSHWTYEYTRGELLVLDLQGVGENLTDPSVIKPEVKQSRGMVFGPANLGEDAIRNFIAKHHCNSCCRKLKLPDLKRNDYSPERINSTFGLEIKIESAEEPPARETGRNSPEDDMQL

[20] = molecular target: 5-hydroxytryptamine receptor 1A (Homo sapiens) (UniProt P08908); conditions: Compound concentration 10.0 uM
[21] = molecular target: D(1A) dopamine receptor (Homo sapiens) (UniProt P21728); conditions: Compound concentration 10.0 uM
[22] = molecular target: D(3) dopamine receptor (Homo sapiens) (UniProt P35462); conditions: Compound concentration 10.0 uM
[23] = molecular target: Muscarinic acetylcholine receptor M3 (Homo sapiens) (UniProt P20309); conditions: Compound concentration 10.0 uM
[24] = molecular target: Polyunsaturated fatty acid lipoxygenase ALOX15 (Oryctolagus cuniculus) (UniProt P12530); conditions: Compound concentration 10.0 uM
[25] = molecular target: Serotonin 1 (5-HT1) receptor (Rattus norvegicus) (UniProt P28564+P30940+P19327+P28565); conditions: Compound concentration 10.0 uM
[26] = molecular target: Serotonin 2 (5-HT2) receptor (Rattus norvegicus) (UniProt P30994+P08909+P14842); conditions: Compound concentration 10.0 uM
[27] = molecular target: 5-hydroxytryptamine receptor 4 (Cavia porcellus) (UniProt O70528); conditions: Compound concentration 10.0 uM
[28] = molecular target: Adenosine receptor A1 (Homo sapiens) (UniProt P30542); conditions: Compound concentration 10.0 uM
[29] = molecular target: Acetylcholinesterase (Homo sapiens) (UniProt P22303); conditions: Compound concentration 10.0 uM
[30] = molecular target: Adrenergic receptor alpha-2 (Rattus norvegicus) (UniProt P22086+P19328+P22909); conditions: Compound concentration 10.0 uM
[31] = molecular target: Angiotensin-converting enzyme (Oryctolagus cuniculus) (UniProt P12822); conditions: Compound concentration 10.0 uM
[32] = molecular target: Type-1 angiotensin II receptor (Oryctolagus cuniculus) (UniProt P34976); conditions: Homo sapiens; Compound concentration 10.0 uM
[33] = molecular target: Beta-1 adrenergic receptor (Homo sapiens) (UniProt P08588); conditions: Compound concentration 10.0 uM
[34] = molecular target: Carbonic anhydrase 6 (Homo sapiens) (UniProt P23280); conditions: Compound concentration 10.0 uM
[35] = molecular target: D(2) dopamine receptor (Homo sapiens) (UniProt P14416); conditions: Compound concentration 10.0 uM
[36] = molecular target: Histamine H1 receptor (Homo sapiens) (UniProt P35367); conditions: Compound concentration 10.0 uM
[37] = molecular target: Histamine H2 receptor (Homo sapiens) (UniProt P25021); conditions: Compound concentration 10.0 uM
[38] = molecular target: Muscarinic acetylcholine receptor (Rattus norvegicus) (UniProt P08482+P08483+P08485+P08911+P10980); conditions: Compound concentration 10.0 uM
[39] = molecular target: Sodium-dependent noradrenaline transporter (Homo sapiens) (UniProt P23975); conditions: Compound concentration 10.0 uM
[40] = molecular target: Opioid receptor (Rattus norvegicus) (UniProt P33533+P34975+P33535); conditions: Compound concentration 10.0 uM
[41] = molecular target: 3',5'-cyclic-AMP phosphodiesterase 4A (Homo sapiens) (UniProt P27815); conditions: Compound concentration 10.0 uM
[42] = molecular target: Interstitial collagenase (Homo sapiens) (UniProt P03956); conditions: Compound concentration 10.0 uM
[43] = molecular target: Sigma receptor (Homo sapiens) (UniProt Q99720+Q5BJF2); conditions: Cavia porcellus; Compound concentration 10.0 uM
[44] = molecular target: Thromboxane-A synthase (Homo sapiens) (UniProt P24557); conditions: Compound concentration 10.0 uM

Bone morphogenetic protein receptor type-2 (Homo sapiens), sequence (Q13873 whole entry): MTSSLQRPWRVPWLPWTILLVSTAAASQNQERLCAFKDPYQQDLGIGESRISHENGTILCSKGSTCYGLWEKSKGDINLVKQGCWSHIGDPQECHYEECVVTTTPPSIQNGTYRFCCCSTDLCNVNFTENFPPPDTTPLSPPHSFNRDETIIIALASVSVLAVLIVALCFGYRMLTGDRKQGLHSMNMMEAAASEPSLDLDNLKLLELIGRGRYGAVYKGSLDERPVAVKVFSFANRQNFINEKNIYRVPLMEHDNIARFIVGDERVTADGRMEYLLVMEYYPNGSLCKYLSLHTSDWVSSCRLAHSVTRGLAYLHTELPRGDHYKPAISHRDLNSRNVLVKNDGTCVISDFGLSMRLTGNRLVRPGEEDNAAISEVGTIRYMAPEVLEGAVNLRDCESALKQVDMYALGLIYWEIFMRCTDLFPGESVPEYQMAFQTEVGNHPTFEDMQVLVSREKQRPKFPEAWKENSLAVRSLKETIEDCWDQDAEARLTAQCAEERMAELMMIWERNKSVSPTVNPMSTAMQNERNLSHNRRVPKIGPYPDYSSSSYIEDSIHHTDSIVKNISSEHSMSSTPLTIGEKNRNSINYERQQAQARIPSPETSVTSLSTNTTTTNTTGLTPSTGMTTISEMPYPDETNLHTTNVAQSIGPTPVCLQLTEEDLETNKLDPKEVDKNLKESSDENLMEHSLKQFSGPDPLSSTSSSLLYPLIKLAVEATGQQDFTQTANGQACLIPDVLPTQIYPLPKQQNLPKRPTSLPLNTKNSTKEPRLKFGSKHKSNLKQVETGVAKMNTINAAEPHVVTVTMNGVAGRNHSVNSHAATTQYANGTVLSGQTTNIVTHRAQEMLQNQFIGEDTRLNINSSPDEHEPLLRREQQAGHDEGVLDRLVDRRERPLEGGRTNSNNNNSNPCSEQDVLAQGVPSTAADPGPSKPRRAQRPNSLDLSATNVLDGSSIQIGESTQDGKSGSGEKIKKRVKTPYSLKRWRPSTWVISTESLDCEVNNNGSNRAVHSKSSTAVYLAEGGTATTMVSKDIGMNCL

CCS(=O)(=O)c1cc2cc(C[C@@](O)(CC(C)(C)c3ccc(F)cc3C(N)=O)C(F)(F)F)[nH]c2cn1
inactive: residual activity [1] 96% | residual activity [2] 99% | residual activity [3] 91% | residual activity [4] 77% | residual activity [5] 80% | residual activity [6] 95% | residual activity [7] 95% | residual activity [8] 83% | residual activity [9] 100% | residual activity [10] 100% | residual activity [11] 77% | residual activity [12] 100% | residual activity [13] 95% | residual activity [14] 85% | residual activity [15] 67% | residual activity [16] 76% | residual activity [17] 84% | residual activity [18] 94% | residual activity [19] 72% | inhibition [20] -7.37% | inhibition [21] 2.6% | inhibition [22] 1.8% | inhibition [23] 1.25%

CCS(=O)(=O)c1cc2cc(C[C@](O)(CC(C)(C)c3ccc(F)cc3C(N)=O)C(F)(F)F)[nH]c2cn1
inactive: residual activity [1] 94% | residual activity [2] 100% | residual activity [3] 100% | residual activity [4] 100% | residual activity [5] 80% | residual activity [6] 100% | residual activity [7] 100% | residual activity [8] 100% | residual activity [9] 100% | residual activity [10] 100% | residual activity [11] 100% | residual activity [12] 100% | residual activity [13] 100% | residual activity [14] 96% | residual activity [15] 100% | residual activity [16] 100% | residual activity [17] 95% | residual activity [18] 90% | residual activity [19] 86% | inhibition [22] 7.81% | residual activity [24] 89% | residual activity [25] 118% | residual activity [26] 94% | residual activity [27] 89% | residual activity [28] 107% | residual activity [29] 91% | residual activity [30] 106% | residual activity [31] 109% | residual activity [32] 96% | residual activity [33] 90% | residual activity [34] 85% | residual activity [35] 90% | residual activity [36] 100% | residual activity [37] 96% | residual activity [38] 103% | residual activity [39] 102% | residual activity [40] 95% | residual activity [41] 81% | residual activity [42] 94% | residual activity [43] 86% | residual activity [44] 93%
